According to ChEMBL document CHEMBL1201862, “PubChem BioAssay data set” (2004):
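Protocol summary: plate cells (96-well), add compound at 5 concentrations, incubate 48 h, interpolate endpoints linearly. GI50 marks 50% less growth.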 Activity calls are given as the source filed them. No stated cut-off is given here; in the data, active = GI50 up to about 1.1 µM and inactive = higher.

What was measured:
Experiment in all cases: growth of human tumour cells (NCI), 48 h
786-0 = tested on: 786-0
A498 = tested on: A498
A549 = tested on: A549
ACHN = tested on: ACHN
BT-549 = tested on: BT-549
CAKI-1 = tested on: CAKI-1
CCRF-CEM = tested on: CCRF-CEM
COLO 205 = tested on: COLO 205
DU-145 = tested on: DU-145
EKVX = tested on: EKVX
HCC 2998 = tested on: HCC 2998
HCT-116 = tested on: HCT-116
HCT-15 = tested on: HCT-15
HOP-62 = tested on: HOP-62
HOP-92 = tested on: HOP-92
HT-29 = tested on: HT-29
Hs-578T = tested on: Hs-578T
IGROV-1 = tested on: IGROV-1
K562 = tested on: K562
KM12 = tested on: KM12
LOX IMVI = tested on: LOX IMVI
M14 = tested on: M14
MCF7 = tested on: MCF7
MDA-MB-231 = tested on: MDA-MB-231
MDA-MB-435 = tested on: MDA-MB-435
MDA-N = tested on: MDA-N
MOLT-4 = tested on: MOLT-4
NCI-H226 = tested on: NCI-H226
NCI-H23 = tested on: NCI-H23
NCI-H460 = tested on: NCI-H460
NCI-H522 = tested on: NCI-H522
NCI/ADR-RES = tested on: NCI/ADR-RES
OVCAR-3 = tested on: OVCAR-3
OVCAR-4 = tested on: OVCAR-4
OVCAR-5 = tested on: OVCAR-5
OVCAR-8 = tested on: OVCAR-8
PC-3 = tested on: PC-3
RXF 393 = tested on: RXF 393
SF-268 = tested on: SF-268
SF-295 = tested on: SF-295
SF-539 = tested on: SF-539
SK-MEL-28 = tested on: SK-MEL-28
SK-MEL-2 = tested on: SK-MEL-2
SK-MEL-5 = tested on: SK-MEL-5
SK-OV-3 = tested on: SK-OV-3
SN12C = tested on: SN12C
SNB-75 = tested on: SNB-75
SR = tested on: SR
SW-620 = tested on: SW-620
T47D = tested on: T47D
TK-10 = tested on: TK-10
U-251 = tested on: U-251
UACC-257 = tested on: UACC-257
UACC-62 = tested on: UACC-62
UO-31 = tested on: UO-31
HL-60 = tested on: HL-60
Malme-3M = tested on: Malme-3M
RPMI-8226 = tested on: RPMI-8226
SNB-19 = tested on: SNB-19

In the case of Cc1c(C(=O)O)n2c(C)nnc2c2ccccc12, the GI50 (786-0) is reported as > 100 µM (inactive), the GI50 (A498) is reported as > 100 µM (inactive) and the GI50 (A549) is reported as > 100 µM (inactive). The GI50 (ACHN) was > 100 µM (inactive), the GI50 (BT-549) was > 100 µM (inactive) and the GI50 (CAKI-1) was > 100 µM (inactive). The GI50 (CCRF-CEM) was > 100 µM (inactive), the GI50 (COLO 205) was > 100 µM (inactive) and the GI50 (DU-145) was > 100 µM (inactive). For the same molecule, the GI50 (EKVX) was > 100 µM (inactive), the GI50 (HCC 2998) was > 100 µM (inactive) and the GI50 (HCT-116) was > 100 µM (inactive). For the same molecule, the GI50 (HCT-15) was over 100 µM, the GI50 (HOP-62) was > 100 µM (inactive) and the GI50 (HOP-92) was > 100 µM (inactive). For the same molecule, the GI50 (HT-29) was > 100 µM (inactive), the GI50 (Hs-578T) was > 100 µM (inactive) and the GI50 (IGROV-1) was > 100 µM (inactive). The GI50 (K562) was > 100 µM (inactive), the GI50 (KM12) was > 100 µM (inactive) and the GI50 (LOX IMVI) was > 100 µM (inactive). For the same molecule, the GI50 (M14) was > 100 µM (inactive), the GI50 (MCF7) was > 100 µM (inactive) and the GI50 (MDA-MB-231) was > 100 µM (inactive). The GI50 (MDA-MB-435) was > 100 µM (inactive), the GI50 (MDA-N) was > 100 µM (inactive) and the GI50 (MOLT-4) was > 100 µM (inactive). The GI50 (NCI-H226) was > 100 µM (inactive), the GI50 (NCI-H23) was > 100 µM (inactive) and the GI50 (NCI-H460) was > 100 µM (inactive). For the same molecule, the GI50 (NCI-H522) was > 100 µM (inactive), the GI50 (NCI/ADR-RES) was > 100 µM (inactive) and the GI50 (OVCAR-3) was > 100 µM (inactive). For the same molecule, the GI50 (OVCAR-4) was > 100 µM (inactive), the GI50 (OVCAR-5) was > 100 µM (inactive) and the GI50 (OVCAR-8) was > 100 µM (inactive). For the same molecule, the GI50 (PC-3) was > 100 µM (inactive), the GI50 (RXF 393) was > 100 µM (inactive) and the GI50 (SF-268) was > 100 µM (inactive). For the same molecule, the GI50 (SF-295) was > 100 µM (inactive), the GI50 (SF-539) was > 100 µM (inactive) and the GI50 (SK-MEL-28) was > 100 µM (inactive). The GI50 (SK-MEL-2) was > 100 µM (inactive), the GI50 (SK-MEL-5) was > 100 µM (inactive) and the GI50 (SK-OV-3) was > 100 µM (inactive). For the same molecule, the GI50 (SN12C) was > 100 µM (inactive), the GI50 (SNB-75) was 36 µM (inactive) and the GI50 (SR) was > 100 µM (inactive). The GI50 (SW-620) was > 100 µM (inactive), the GI50 (T47D) was > 100 µM (inactive) and the GI50 (TK-10) was > 100 µM (inactive). For the same molecule, the GI50 (U-251) was > 100 µM (inactive), the GI50 (UACC-257) was > 100 µM (inactive) and the GI50 (UACC-62) was > 100 µM (inactive). The GI50 (UO-31) was 61.5 µM (inactive).

In the case of Cc1nc2ccc(NC3OCC(O)C(O)C3O)cc2c(=O)n1-c1ccccc1 (stereo not drawn), the GI50 (786-0) is reported as > 100 µM (inactive), the GI50 (A498) is reported as > 100 µM (inactive) and the GI50 (ACHN) is reported as > 100 µM (inactive). The GI50 (BT-549) was > 100 µM (inactive), the GI50 (CAKI-1) was > 100 µM (inactive) and the GI50 (COLO 205) was > 100 µM (inactive). For the same molecule, the GI50 (DU-145) was > 100 µM (inactive), the GI50 (EKVX) was > 100 µM (inactive) and the GI50 (HCC 2998) was > 100 µM (inactive). For the same molecule, the GI50 (HCT-116) was > 100 µM (inactive), the GI50 (HCT-15) was over 100 µM and the GI50 (HL-60) was 49.7 µM (inactive). The GI50 (HOP-62) was > 100 µM (inactive), the GI50 (HT-29) was > 100 µM (inactive) and the GI50 (Hs-578T) was > 100 µM (inactive). For the same molecule, the GI50 (IGROV-1) was > 100 µM (inactive), the GI50 (K562) was > 100 µM (inactive) and the GI50 (KM12) was > 100 µM (inactive). The GI50 (LOX IMVI) was > 100 µM (inactive), the GI50 (MCF7) was > 100 µM (inactive) and the GI50 (MDA-MB-231) was > 100 µM (inactive). For the same molecule, the GI50 (MDA-MB-435) was > 100 µM (inactive), the GI50 (MDA-N) was > 100 µM (inactive) and the GI50 (MOLT-4) was > 100 µM (inactive). For the same molecule, the GI50 (Malme-3M) was > 100 µM (inactive), the GI50 (NCI-H226) was > 100 µM (inactive) and the GI50 (NCI-H23) was > 100 µM (inactive). The GI50 (NCI-H460) was > 100 µM (inactive), the GI50 (NCI-H522) was > 100 µM (inactive) and the GI50 (NCI/ADR-RES) was > 100 µM (inactive). The GI50 (OVCAR-3) was > 100 µM (inactive), the GI50 (OVCAR-4) was > 100 µM (inactive) and the GI50 (OVCAR-5) was > 100 µM (inactive). The GI50 (OVCAR-8) was > 100 µM (inactive), the GI50 (PC-3) was > 100 µM (inactive) and the GI50 (RPMI-8226) was > 100 µM (inactive). For the same molecule, the GI50 (RXF 393) was > 100 µM (inactive), the GI50 (SF-268) was > 100 µM (inactive) and the GI50 (SF-295) was > 100 µM (inactive). For the same molecule, the GI50 (SK-MEL-28) was > 100 µM (inactive), the GI50 (SK-MEL-2) was > 100 µM (inactive) and the GI50 (SK-MEL-5) was > 100 µM (inactive). For the same molecule, the GI50 (SN12C) was > 100 µM (inactive), the GI50 (SNB-19) was > 100 µM (inactive) and the GI50 (SNB-75) was > 100 µM (inactive). The GI50 (SR) was > 100 µM (inactive), the GI50 (SW-620) was > 100 µM (inactive) and the GI50 (T47D) was > 100 µM (inactive). The GI50 (TK-10) was > 100 µM (inactive), the GI50 (U-251) was > 100 µM (inactive) and the GI50 (UACC-257) was > 100 µM (inactive). For the same molecule, the GI50 (UACC-62) was > 100 µM (inactive) and the GI50 (UO-31) was > 100 µM (inactive).
